Columns and labels:
human TAAR1 = molecular target: T1, human TAAR1 (Homo sapiens, UniProt Q96RJ0); assay: TAAR1 antagonist activity, Hit Hunter cAMP assay; assay type: cell-based; conditions: n.a. = no activity at 10–5 M; read-out: TAAR1 Ant EC50
T1 sequence (Q96RJ0 1-339): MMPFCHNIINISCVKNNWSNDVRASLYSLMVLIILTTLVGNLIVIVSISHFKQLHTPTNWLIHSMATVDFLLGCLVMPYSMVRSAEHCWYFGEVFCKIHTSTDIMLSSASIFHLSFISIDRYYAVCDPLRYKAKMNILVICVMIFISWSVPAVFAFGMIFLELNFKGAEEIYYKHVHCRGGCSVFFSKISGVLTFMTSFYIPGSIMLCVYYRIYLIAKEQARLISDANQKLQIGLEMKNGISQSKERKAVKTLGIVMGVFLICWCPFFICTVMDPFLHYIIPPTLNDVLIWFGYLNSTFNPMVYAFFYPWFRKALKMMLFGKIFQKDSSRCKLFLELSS

HepG2 cells = assay: Glucose consumption (Amplex Red assay) in HepG2 cells; assay type: cell-based, human; conditions: 10 µM; relative to vehicle-treated cells
Protocol: The HepG2 human hepatocellular carcinoma cell line (ATCC® HB-8065™) was cultured in DMEM supplemented with 10% FBS, 100 µg/mL streptomycin, and 100 IU/mL penicillin at 37 °C in 5% CO2. Cells were seeded in 96-well plates at a density of 10,000 cells/well and used for experiments 24 h after plating.
Stock solutions of test compounds were prepared at a concentration of 10 mM in dimethyl sulfoxide (DMSO). At least 1 mg of each substance was carefully measured and mixed with the right amount of DMSO. A series of dilutions were made in DMSO and then further diluted in phosphate-buffered saline before being introduced into the cell culture medium. Precipitation or opalescence was assessed prior to application.
The glucose uptake was measured with the Amplex® Red Glucose/Glucose Oxidase Assay Kit from Thermo Fisher Scientific, following the guidelines provided by the maker. Cell culture supernatants were collected and incubated with a reaction mix containing 100 μM Amplex® Red reagent, 0.2 U/mL horseradish peroxidase (HRP), and 1 U/mL glucose oxidase at room temperature for 30 min in the dark. Fluorescence was measured at 530 nm excitation and 590 nm emission using the POLARstar Omega plate reader (BMG Labtech).

C57BL/6 mice = assay: Inhibition of gastric emptying (mouse model, phenol red); assay type: in vivo; conditions: 5 mg/kg b.w. alone
Protocol: Fifty male C57BL/6 mice (22–27 g) were housed in standard cages while maintaining a 12:12-h light/dark cycle, with food and water available ad libitum. The experimental procedures were performed from 10:00 a.m. to 14:00 p.m.
The experiment was conducted according to Miyasaka et al. and Kotańska et al., with some minor modifications. Mice were subjected to a 20 h food deprivation and a 2 h water deprivation prior to testing. The animals received a vehicle (0.25 mL/mouse) alone or along with various compounds: JP-14 (10 mg/kg b. w.), RT (5 mg/kg body weight), metformin (100 mg/kg b. w.), or loperamide (reference compound; 10 mg/kg b. w.) via gastric gavage. Following a 45 min interval, phenol red (0.5 mL, 0.05% w/v) combined with glucose (1 g/kg body weight) was administered through the same route. Additionally, each group received an intraperitoneal injection of heparin (2500 U/mouse) 20 min prior to the collection of stomach contents. Seven mice treated with the vehicle were sacrificed immediately after the phenol red administration to serve as a standard control (representing 100% phenol red in the stomach at 0 min), establishing a baseline for maximum absorbance (100%). The leftover mice were sacrificed 30 min later. The stomachs were removed and homogenized using an OMNI homogenizer (OMNI International Company, Kennesaw, GA, USA), with 10 mL of 0.1 N NaOH. To 5 mL of homogenate, 0.5 mL of 20% w/v solution of trichloroacetic acid was incorporated to precipitate the proteins. Subsequently, the samples were centrifuged at 600× g for 15 min at a temperature of 20 °C, and 0.25 mL of supernatant was mixed with 1 mL of 0.5 N NaOH to achieve maximum color intensity. The concentration of phenol red was measured using spectrophotometry, with absorbance evaluated at a wavelength of 560 nm (MuLTISKAN.GO, Thermo Fisher Scientific Inc., Waltham, MA USA). For each mouse, the percentage of gastric emptying (GE %) was calculated using the following equation:(1) GE%=(Ac0−Ab)/(Ac0−Ac30)×100% where: Ac0 is the absorbance of the control gastric sample collected immediately after dye administration, and Ac30 is the absorbance of the control gastric sample collected 30 min after dye administration, i.e., Ac0–Ac30 = 100% gastric emptying.

[1] = system: platelet aggregation in rat whole blood; assay: In vitro collagen-induced platelet aggregation in rat whole blood (impedance aggregometry); assay type: cell-based; conditions: 100 µM, collagen 1.6 µg/mL
Protocol: In vitro platelet aggregation assays were conducted using freshly collected whole blood from rats, utilizing the Multiplate platelet function analyzer (Roche Diagnostics, Mannheim, Germany)—a five-channel device that measures electrical impedance, following methods described previously. Upon stimulation, platelets adhere to and aggregate on dual metal sensors within the test cuvette, causing an increase in electrical resistance, which corresponds to the number of platelets attached to the electrodes.
Blood was collected from the carotid artery of the rat into tubes coated with hirudin (S-Monovette, Sarstedt, Germany). A volume of 300 μL of the anticoagulated blood was mixed with 300 μL of prewarmed isotonic saline that contained the test compound or a vehicle control (0.1% DMSO) and incubated at 37 °C for 3 min under continuous stirring. Aggregation was triggered by adding collagen (final concentration: 1.6 µg/mL). Platelet activity was monitored for 6 min. Multiplate V2.04 software calculated the area under the curve (AUC) for each measurement to determine average platelet response.

## N#Cc1c(C(F)(F)F)cc(-c2ccc(Cl)cc2)nc1SCC(=O)Nc1ncccn1 [RTI-7470-44]
Human TAAR1
  EC50: 168 ± 50.7 nM
HepG2 cells
  increase in glucose consumption (uptake): no significant changes
C57BL/6 mice
  effect on gastric emptying: did not affect emptying
[1]
  reduction of collagen-induced platelet aggregation: 41.75%

Reference: article PMC12563652 (International Journal of Molecular Sciences, 2025)
